“Also recorded” adds a separate entry of the source.
Tests used:
CDKL5 = CDKL5 (Homo sapiens, UniProt O76039); test: KINOMEscan; assay type: binding; details: 1 μM of compound 4; read-out: POC
PIK3CA(E545K) = PIK3CA(E545K) (Homo sapiens, UniProt P42336, E545K); test: KINOMEscan; assay type: binding; details: 1 μM of compound 4; read-out: POC
[1] = target: T1, EGFR(L747-T751del + Sins) (Homo sapiens, UniProt P00533, DEL747-750/T751S); test: KINOMEscan; assay type: binding; details: 1 μM of compound 4; read-out: POC
T1 construct: purchased Eurofins DiscoverX (KINOMEscan service)
T1 sequence (P00533 with tags, fused parts or gaps DEL747-750/T751S limits assumed): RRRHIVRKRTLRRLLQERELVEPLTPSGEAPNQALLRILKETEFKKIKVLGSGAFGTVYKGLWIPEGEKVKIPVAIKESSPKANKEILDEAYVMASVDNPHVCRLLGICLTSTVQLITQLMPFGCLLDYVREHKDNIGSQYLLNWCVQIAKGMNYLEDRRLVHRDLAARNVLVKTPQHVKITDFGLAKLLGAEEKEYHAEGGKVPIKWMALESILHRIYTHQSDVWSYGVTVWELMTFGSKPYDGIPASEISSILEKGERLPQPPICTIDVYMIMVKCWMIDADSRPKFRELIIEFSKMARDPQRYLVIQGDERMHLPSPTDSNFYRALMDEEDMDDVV

EGFR(S752-1759del) = target: T2, EGFR(S752-1759del) (Homo sapiens, UniProt P00533, DEL752-759); test: KINOMEscan; assay type: binding; details: 1 μM of compound 4; read-out: POC
T2 construct: purchased Eurofins DiscoverX (KINOMEscan service)
T2 sequence (P00533 with tags, fused parts or gaps DEL752-759 limits assumed): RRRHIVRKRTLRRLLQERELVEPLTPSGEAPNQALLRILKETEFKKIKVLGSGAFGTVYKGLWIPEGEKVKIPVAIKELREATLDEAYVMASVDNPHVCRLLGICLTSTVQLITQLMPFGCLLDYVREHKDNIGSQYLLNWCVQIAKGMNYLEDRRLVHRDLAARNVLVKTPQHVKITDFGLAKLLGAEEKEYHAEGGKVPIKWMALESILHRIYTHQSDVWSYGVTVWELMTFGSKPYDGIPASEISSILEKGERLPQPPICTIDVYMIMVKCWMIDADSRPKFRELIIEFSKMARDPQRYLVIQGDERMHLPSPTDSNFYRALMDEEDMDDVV

IKK-beta = IKK-beta (Homo sapiens, UniProt O14920); test: KINOMEscan; assay type: binding; details: 1 μM of compound 4; read-out: POC
NEK1 = NEK1 (Homo sapiens, UniProt Q96PY6); test: KINOMEscan; assay type: binding; details: 1 μM of compound 4; read-out: POC
CSK = CSK (Homo sapiens, UniProt P41240); test: KINOMEscan; assay type: binding; details: 1 μM of compound 4; read-out: POC
LATS1 = LATS1 (Homo sapiens, UniProt O95835); test: KINOMEscan; assay type: binding; details: 1 μM of compound 4; read-out: POC
LATS1, sequence (O95835 whole entry): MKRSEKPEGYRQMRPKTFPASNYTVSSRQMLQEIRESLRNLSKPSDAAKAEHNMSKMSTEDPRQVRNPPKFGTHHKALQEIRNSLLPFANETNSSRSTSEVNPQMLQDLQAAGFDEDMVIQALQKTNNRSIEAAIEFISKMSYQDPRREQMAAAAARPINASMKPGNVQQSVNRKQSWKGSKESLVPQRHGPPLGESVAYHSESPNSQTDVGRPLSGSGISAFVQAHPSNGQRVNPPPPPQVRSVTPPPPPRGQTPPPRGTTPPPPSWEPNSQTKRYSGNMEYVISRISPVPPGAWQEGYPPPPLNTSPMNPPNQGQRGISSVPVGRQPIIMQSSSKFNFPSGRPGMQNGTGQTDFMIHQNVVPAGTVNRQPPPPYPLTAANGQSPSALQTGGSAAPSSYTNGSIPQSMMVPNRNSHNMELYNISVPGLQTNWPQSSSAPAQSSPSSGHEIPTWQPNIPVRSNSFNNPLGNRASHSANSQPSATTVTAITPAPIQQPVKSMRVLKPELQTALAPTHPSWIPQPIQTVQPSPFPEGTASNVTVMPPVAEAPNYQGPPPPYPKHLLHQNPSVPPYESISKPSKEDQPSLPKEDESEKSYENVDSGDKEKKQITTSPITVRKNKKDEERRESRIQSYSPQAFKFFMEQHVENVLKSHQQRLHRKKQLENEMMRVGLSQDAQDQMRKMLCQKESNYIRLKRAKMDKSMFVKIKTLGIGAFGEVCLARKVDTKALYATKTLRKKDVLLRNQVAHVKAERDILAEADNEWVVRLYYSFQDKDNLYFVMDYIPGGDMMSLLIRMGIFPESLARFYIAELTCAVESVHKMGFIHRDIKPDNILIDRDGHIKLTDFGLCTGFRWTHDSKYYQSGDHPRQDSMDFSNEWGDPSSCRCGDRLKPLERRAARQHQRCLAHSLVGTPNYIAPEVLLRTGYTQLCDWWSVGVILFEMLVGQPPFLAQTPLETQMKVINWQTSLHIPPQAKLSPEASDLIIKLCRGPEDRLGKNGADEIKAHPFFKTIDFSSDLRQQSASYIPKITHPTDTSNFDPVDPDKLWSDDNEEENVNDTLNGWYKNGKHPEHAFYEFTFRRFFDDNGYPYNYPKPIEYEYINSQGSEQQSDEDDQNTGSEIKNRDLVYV

KIT(L576P) = KIT(L576P) (Homo sapiens, UniProt P10721, L576P); test: KINOMEscan; assay type: binding; details: 1 μM of compound 4; read-out: POC
KIT(L576P), sequence (P10721 26-976 L576P): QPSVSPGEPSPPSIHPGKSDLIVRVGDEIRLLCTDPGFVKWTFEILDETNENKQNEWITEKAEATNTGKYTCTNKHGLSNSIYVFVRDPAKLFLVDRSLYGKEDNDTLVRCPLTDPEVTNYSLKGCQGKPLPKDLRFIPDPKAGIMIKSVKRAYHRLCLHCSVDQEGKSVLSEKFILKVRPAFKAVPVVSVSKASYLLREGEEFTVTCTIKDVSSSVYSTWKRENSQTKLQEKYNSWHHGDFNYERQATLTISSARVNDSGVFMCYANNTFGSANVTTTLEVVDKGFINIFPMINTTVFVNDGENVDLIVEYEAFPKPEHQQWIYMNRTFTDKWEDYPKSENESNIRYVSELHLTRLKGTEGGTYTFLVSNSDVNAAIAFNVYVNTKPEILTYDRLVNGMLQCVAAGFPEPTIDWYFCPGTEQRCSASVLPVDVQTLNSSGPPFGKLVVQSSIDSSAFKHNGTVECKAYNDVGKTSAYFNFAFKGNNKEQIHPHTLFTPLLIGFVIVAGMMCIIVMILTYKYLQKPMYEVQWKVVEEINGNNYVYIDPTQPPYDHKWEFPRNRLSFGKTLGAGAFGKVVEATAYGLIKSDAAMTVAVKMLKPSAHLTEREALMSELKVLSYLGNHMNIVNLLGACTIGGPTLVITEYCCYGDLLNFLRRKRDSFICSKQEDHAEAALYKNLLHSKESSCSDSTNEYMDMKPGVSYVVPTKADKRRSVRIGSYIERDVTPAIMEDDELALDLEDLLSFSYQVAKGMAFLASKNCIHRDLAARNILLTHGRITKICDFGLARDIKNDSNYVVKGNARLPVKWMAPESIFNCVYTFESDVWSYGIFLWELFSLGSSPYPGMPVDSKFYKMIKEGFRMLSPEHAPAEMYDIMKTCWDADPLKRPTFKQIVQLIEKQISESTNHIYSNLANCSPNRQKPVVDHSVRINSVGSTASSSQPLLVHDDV

FYN = target: T3, FYN (Homo sapiens, UniProt P06241); test: KINOMEscan; assay type: binding; details: 1 μM of compound 4; read-out: POC
T3 construct: purchased Eurofins DiscoverX Corporation

[2] = test system: EGFR (L858R/T790M) in H1975 lung cancer cells; test: Western blotting of EGFR, ERK1/2 and AKT phosphorylation; assay type: cell-based, human; details: 6 hours treatment
Procedure: FIG. 2. […] All experiments performed after 6 hours treatments of inhibitors or DMSO controls and Western blots are representative of at least three independent experiments.
Western blotting. Cells were collected and lysed with lysis buffer (5M NaCl, 1M TRIS pH 8.0, 10% SDS, 10% Triton X-100 and a tablet of protease inhibitors) and processed for Western blotting analysis. Primary antibodies used; phospho-EGFR (Tyr1068; #2234, 1:1,000), EGFR (#4267; 1:1,000), phospho-AKT (Ser473; #4060, 1:1,000), AKT (#9272, 1:1,000), phospho-ERK1/2 (Thr202/Tyr204; #4370, 1:1,000), and ERK1/2 (#4695, 1:1,000) antibodies; were purchased from Cell Signaling Technology. Secondary Goat anti-rabbit IgG starbright blue 700 and Anti-tubulin hFAB Rhodamine Tubulin were purchased from Bio-rad.

MST1R = MST1R (Homo sapiens, UniProt Q04912); test: KINOMEscan; assay type: binding; details: 1 μM of compound 4; read-out: POC
MST1R, sequence (Q04912 25-1400): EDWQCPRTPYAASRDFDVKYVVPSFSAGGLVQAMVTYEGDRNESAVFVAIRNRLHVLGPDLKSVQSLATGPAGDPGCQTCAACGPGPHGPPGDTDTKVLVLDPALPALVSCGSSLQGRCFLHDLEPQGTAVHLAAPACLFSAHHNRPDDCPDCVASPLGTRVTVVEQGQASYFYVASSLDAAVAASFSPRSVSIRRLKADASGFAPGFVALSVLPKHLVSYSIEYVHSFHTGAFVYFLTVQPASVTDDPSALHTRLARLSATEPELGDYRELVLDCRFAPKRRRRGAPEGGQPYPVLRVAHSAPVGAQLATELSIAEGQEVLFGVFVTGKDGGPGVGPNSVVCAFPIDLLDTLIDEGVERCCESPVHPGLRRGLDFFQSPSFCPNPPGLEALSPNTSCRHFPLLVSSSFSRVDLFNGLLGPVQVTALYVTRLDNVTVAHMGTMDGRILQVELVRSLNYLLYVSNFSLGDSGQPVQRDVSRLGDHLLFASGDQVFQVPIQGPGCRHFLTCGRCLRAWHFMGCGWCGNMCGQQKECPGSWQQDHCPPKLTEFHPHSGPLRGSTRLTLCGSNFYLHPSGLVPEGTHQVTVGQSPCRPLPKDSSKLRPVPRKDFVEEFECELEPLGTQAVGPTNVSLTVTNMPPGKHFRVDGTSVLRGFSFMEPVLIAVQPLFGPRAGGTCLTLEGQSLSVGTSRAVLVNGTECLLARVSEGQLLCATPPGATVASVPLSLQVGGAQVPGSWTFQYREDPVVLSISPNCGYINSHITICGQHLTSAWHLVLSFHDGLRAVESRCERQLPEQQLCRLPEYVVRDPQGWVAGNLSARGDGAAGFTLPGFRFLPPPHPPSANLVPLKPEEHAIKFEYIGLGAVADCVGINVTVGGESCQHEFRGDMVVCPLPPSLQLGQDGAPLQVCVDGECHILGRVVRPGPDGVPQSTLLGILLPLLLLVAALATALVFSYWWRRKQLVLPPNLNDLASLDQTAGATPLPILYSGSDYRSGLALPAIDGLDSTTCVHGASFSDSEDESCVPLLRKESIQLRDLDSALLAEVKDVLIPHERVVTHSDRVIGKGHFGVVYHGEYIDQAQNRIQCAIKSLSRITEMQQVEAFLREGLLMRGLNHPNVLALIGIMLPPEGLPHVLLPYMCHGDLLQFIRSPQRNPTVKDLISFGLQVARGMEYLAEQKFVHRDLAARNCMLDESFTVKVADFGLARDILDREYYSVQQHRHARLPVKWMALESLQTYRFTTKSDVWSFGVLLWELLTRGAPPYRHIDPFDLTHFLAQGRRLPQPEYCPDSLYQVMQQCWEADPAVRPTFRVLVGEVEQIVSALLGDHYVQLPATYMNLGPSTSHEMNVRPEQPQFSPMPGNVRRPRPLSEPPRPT

TAOK1 = target: T4, TAOK1 (Homo sapiens, UniProt Q7L7X3); test: KINOMEscan; assay type: binding; details: 1 μM of compound 4; read-out: POC
T4 construct: purchased Eurofins DiscoverX Corporation

468 kinases = test: KINOMEscan selectivity screening; assay type: binding; details: 1 μM
ULK1 = target: T5, ULK1 (Homo sapiens, UniProt O75385); test: KINOMEscan; assay type: binding; details: 1 μM of compound 4; read-out: POC
T5 construct: purchased Eurofins DiscoverX

FLT3(K663Q) = target: T6, FLT3(K663Q) (Homo sapiens, UniProt P36888, K663Q); test: KINOMEscan; assay type: binding; details: 1 μM of compound 4; read-out: POC
T6 construct: purchased Eurofins DiscoverX Corporation

PHKG1 = PHKG1 (Homo sapiens, UniProt Q16816); test: KINOMEscan; assay type: binding; details: 1 μM of compound 4; read-out: POC
PHKG1, sequence (Q16816 whole entry): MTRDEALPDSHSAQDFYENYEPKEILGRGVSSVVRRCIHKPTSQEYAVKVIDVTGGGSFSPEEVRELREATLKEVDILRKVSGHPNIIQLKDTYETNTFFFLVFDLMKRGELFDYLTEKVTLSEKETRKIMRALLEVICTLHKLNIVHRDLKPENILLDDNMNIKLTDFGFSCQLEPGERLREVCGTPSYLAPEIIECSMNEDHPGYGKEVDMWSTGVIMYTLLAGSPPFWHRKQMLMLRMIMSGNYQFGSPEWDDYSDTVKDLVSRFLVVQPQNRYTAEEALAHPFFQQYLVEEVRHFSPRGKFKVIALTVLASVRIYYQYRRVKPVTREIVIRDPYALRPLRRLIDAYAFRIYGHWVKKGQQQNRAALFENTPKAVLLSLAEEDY

MARK1 = MARK1 (Homo sapiens, UniProt Q9P0L2); test: KINOMEscan; assay type: binding; details: 1 μM of compound 4; read-out: POC
KIT(A829P) = KIT(A829P) (Homo sapiens, UniProt P10721, A829P); test: KINOMEscan; assay type: binding; details: 1 μM of compound 4; read-out: POC
KIT(A829P), sequence (P10721 26-976 A829P): as the sequence (P10721 26-976 L576P) above, with P551L, A804P counted along it

[3] = target: T7, RSK3(Kin.Dom.1-N-terminal) (Homo sapiens, UniProt Q15349); test: KINOMEscan; assay type: binding; details: 1 μM of compound 4; read-out: POC
T7 construct: RSK3(Kin.Dom.1-N-terminal); purchased Eurofins DiscoverX (KINOMEscan service)

BMPR1B = BMPR1B (Homo sapiens, UniProt O00238); test: KINOMEscan; assay type: binding; details: 1 μM of compound 4; read-out: POC
RIPK5 = target: T8, RIPK5 (Homo sapiens, UniProt Q6XUX3); test: KINOMEscan; assay type: binding; details: 1 μM of compound 4; read-out: POC
T8 construct: purchased Eurofins DiscoverX Corporation (KINOMEscan screening service)

ACVR1 = target: T9, ACVR1 (Homo sapiens, UniProt Q04771); test: KINOMEscan; assay type: binding; details: 1 μM of compound 4; read-out: POC
T9 construct: purchased Eurofins DiscoverX Corporation

GRK1 = target: T10, GRK1 (Homo sapiens, UniProt Q15835); test: KINOMEscan; assay type: binding; details: 1 μM of compound 4; read-out: POC
T10 construct: purchased Eurofins DiscoverX Corporation

FLT1 = target: T11, FLT1 (Homo sapiens, UniProt P17948); test: KINOMEscan; assay type: binding; details: 1 μM of compound 4; read-out: POC
T11 construct: purchased Eurofins DiscoverX Corporation

RIPK2 = target: T12, RIPK2 (Homo sapiens, UniProt O43353); test: KINOMEscan; assay type: binding; details: 1 μM of compound 4; read-out: POC
T12 construct: purchased Eurofins DiscoverX Corporation (KINOMEscan screening service)

AKT1 = AKT1 (Homo sapiens, UniProt P31749); test: KINOMEscan; assay type: binding; details: 1 μM of compound 4; read-out: POC
AKT1, sequence (P31749 whole entry): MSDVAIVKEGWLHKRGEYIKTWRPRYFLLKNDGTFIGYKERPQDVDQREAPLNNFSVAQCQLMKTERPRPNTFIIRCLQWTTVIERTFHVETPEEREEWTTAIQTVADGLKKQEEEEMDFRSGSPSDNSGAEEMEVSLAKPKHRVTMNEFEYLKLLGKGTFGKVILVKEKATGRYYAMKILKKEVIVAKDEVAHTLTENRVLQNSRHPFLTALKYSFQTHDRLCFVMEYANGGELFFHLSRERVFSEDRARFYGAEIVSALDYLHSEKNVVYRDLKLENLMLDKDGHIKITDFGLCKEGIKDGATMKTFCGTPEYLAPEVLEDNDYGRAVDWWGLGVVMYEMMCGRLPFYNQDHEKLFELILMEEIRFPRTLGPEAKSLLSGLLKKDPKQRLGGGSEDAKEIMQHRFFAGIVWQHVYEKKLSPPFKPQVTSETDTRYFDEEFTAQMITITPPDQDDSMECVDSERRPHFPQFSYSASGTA

BRSK2 = BRSK2 (Homo sapiens, UniProt Q8IWQ3); test: KINOMEscan; assay type: binding; details: 1 μM of compound 4; read-out: POC
WNK1 = target: T13, WNK1 (Homo sapiens, UniProt Q9H4A3); test: KINOMEscan; assay type: binding; details: 1 μM of compound 4; read-out: POC
T13 construct: purchased Eurofins DiscoverX

MAPKAPK2 = MAPKAPK2 (Homo sapiens, UniProt P49137); test: KINOMEscan; assay type: binding; details: 1 μM of compound 4; read-out: POC
CDK11 = CDK11 (Homo sapiens, UniProt Q9BWU1); test: KINOMEscan; assay type: binding; details: 1 μM of compound 4; read-out: POC
JNK2 = JNK2 (Homo sapiens, UniProt P45984); test: KINOMEscan; assay type: binding; details: 1 μM of compound 4; read-out: POC
DAPK2 = DAPK2 (Homo sapiens, UniProt Q9UIK4); test: KINOMEscan; assay type: binding; details: 1 μM of compound 4; read-out: POC

SMILES: C=CC(=O)Nc1ccc(OC)c(Nc2cc(-c3[nH]c(CC)nc3-c3cccc(NC(=O)c4cccc5c4NC(=O)c4ccccc4N5)c3)ccn2)c1 [Compound 4, N-(3-(5-(2-((5-Acrylamido-2-methoxyphenyl)amino)pyridin-4-yl)-2-ethyl-1H-imidazol-4-yl)phenyl)-11-oxo-10,11-dihydro-5H-dibenzo[b,e][1,4]diazepine-9-carboxamide]
- remaining binding at 1 µM (CDKL5): 98%
- remaining binding at 1 µM (PIK3CA(E545K)): 100%
- remaining binding at 1 µM [1]: 7.6%
- remaining binding at 1 µM (EGFR(S752-1759del)): 6%
- remaining binding at 1 µM (IKK-beta): 88%
- remaining binding at 1 µM (NEK1): 90%
- remaining binding at 1 µM (CSK): 14%
- remaining binding at 1 µM (LATS1): 100%
- remaining binding at 1 µM (KIT(L576P)): 84%
- remaining binding at 1 µM (FYN): 64%
- EGFR, ERK1/2 and AKT phosphorylation (Western blot) [2]: most effective in suppression of active EGFR (pY1068) as well as downstream pERK; also recorded: reduces EGFR (L858R/T790M), ERK1/2, and AKT phosphorylation
- remaining binding at 1 µM (MST1R): 85%
- remaining binding at 1 µM (TAOK1): 100%
- S (35) kinome selectivity (468 kinases): 0.084
- remaining binding at 1 µM (ULK1): 100%
- remaining binding at 1 µM (FLT3(K663Q)): 87%
- remaining binding at 1 µM (PHKG1): 96%
- remaining binding at 1 µM (MARK1): 92%
- remaining binding at 1 µM (KIT(A829P)): 56%
- remaining binding at 1 µM [3]: 97%
- remaining binding at 1 µM (BMPR1B): 100%
- remaining binding at 1 µM (RIPK5): 79%
- remaining binding at 1 µM (ACVR1): 96%
- remaining binding at 1 µM (GRK1): 94%
- remaining binding at 1 µM (FLT1): 100%
- remaining binding at 1 µM (RIPK2): 62%
- remaining binding at 1 µM (AKT1): 89%
- remaining binding at 1 µM (BRSK2): 93%
- remaining binding at 1 µM (WNK1): 100%
- remaining binding at 1 µM (MAPKAPK2): 100%
- remaining binding at 1 µM (CDK11): 100%
- remaining binding at 1 µM (JNK2): 78%
- remaining binding at 1 µM (DAPK2): 100%

Source: patent publication US20260224588A1, “BENZODIAZEPINONE-DERIVED INHIBITORS OF EGFR AND HER2” (The Research Foundation for the State University of New York, priority 2023, published 2026)
